Assay: Dilution assay with ROS test assay (liposomes + fluorogenic α-tocopherol probe)
Settings: Example 5 first round; illumination 5 or 9 min per sample
Protocol: For the dilution assay, an amount of a given gel composition is taken and mixed into a volume of PBS in order to dilute the gel. For example, to make a 10 mL solution ten times diluted, a 1 gram sample of the particular gel is mixed into 9 mL of PBS. Thereafter, depending on the make-up of the sample to be tested, an amount of a particular compound, for example urea peroxide (UP) or a particular salt, could be added in order to either boost an amount of the particular compound that was already in the sample to be tested or to test the effect of adding that given compound per se. With respect to adding UP in order to make test samples with various concentrations to be tested in a concomitant series of tests, an initial sample with a high concentration would be prepared from which aliquots would be taken and diluted down with PBS in order to the test samples with the various concentration of UP. In a multi-well plate, the given diluted sample are mixed with 19.1 μL of the liposome solution (to give a final liposome concentration of 15.4 mg/mL in the test sample) in order to provide a 2 mm thickness of the resulting paste-like mixture, this thickness being equivalent to a thickness of gel that would be spread on a patient or used in an in vitro assay. Also present in the sample-liposome mixture is a quantity of the chemical probe that is used in the reactive oxygen species (ROS) test assay (362.9 μL of the of the diluted gel (i.e., the given gel sample that is to be tested) is mixed with 19.1 μL of liposome-probe, as including the chemical probe in the sample-liposome mixture is to ensure that any ROS species will be afforded a maximal opportunity to interact with the probe and thus be detectable as having been generated as a result of any interaction that may occur in the gel composition upon it becoming activated. […] After the illumination is completed, a 100 μL to 300 μL aliquot of the sample-liposome transferred to a 96-well plate for conducting the ROS test (as further described in (iii) below). For the test samples, stock solutions of the samples were made and diluted such that direct comparisons could be made between the samples (e.g., for the measurement of reactive oxygen species).
The ROS test assay utilized in the experimental protocols of the Examples of the present disclosure is that which is described in Krumova et al. “How Lipid Unsaturation, Peroxyl Radical Partitioning, and Chromanol Lipophilic Tail Affect the Antioxidant Activity of a-Tocopherol: direct Visualization via High-Throughput Fluorescence Studies Conducted with Fluorogenic a-Tocopherol Analogues” (J. Am. Chem. Soc. 2012, vol. 134, pages 10102-10113). The assay utilizes highly sensitive fluorogenic α-tocopherol (TOH) analogues that undergo a 30-fold fluorescence intensity enhancement upon their reaction with peroxyl radicals that are generated due to the oxidation of the liposome membrane with ROS species that may be present in the reaction mixture. The assay utilizes a high-throughput microplate reader that relies on the high sensitivity of the TOH probes and provides a quantitative treatment of the temporal evolution of the fluorescence intensity thereby allowing for kinetic information to be obtained under the conditions being analyzed. The TOH analogues are two-segment receptor-reporter probes that consist of a chromanol moiety coupled to the meso position of a BODIPY fluorophore, either by an ester linker (the probe being called H2B-TOH) or via a methylene linker (the probe being called H2B-PMHC). The chromanol moiety quenches the emission of the fluorophore until it is oxidized following reaction with peroxyl radicals. […]

SMILES | ROS [µM]
NC(N)=O.OO [S 25, urea peroxide] | 0.56
NC(N)=O.OO [S 21, urea peroxide] | 0.39
NC(N)=O.OO [S 27, urea peroxide] | 0.75
NC(N)=O.OO [S 29, urea peroxide] | 0.86
NC(N)=O.OO [S 28, urea peroxide] | 0.87
NC(N)=O.OO [S 23, urea peroxide] | 0.46
NC(N)=O.OO [S 22, urea peroxide] | 0.49
NC(N)=O.OO [S 20, urea peroxide] | 0.34
NC(N)=O.OO [S 26, urea peroxide] | 0.72
NC(N)=O.OO [S 24, urea peroxide] | 0.51
